Source: patent US20130315849A1, “USE OF 13-HYDROXY-9,11-OCTADECADIENOIC ACID FOR TANNING HUMAN SKIN” (EVONIK GOLDSCHMIDT GMBH, priority 2010, published 2013)

Tests used:
IL-8 = test: UV-stimulated induction of IL-8 gene expression in keratinocytes (qRT-PCR); format: cell-based, human; conditions: NHEKs, UV-B exposed, treated with 13-HODE as in Example 1; UV alone induction factor 11.2
Source text: (§1) In the present example, the effect of 13-HODE on the expression of various proinflammatory marker genes in UV-B-stimulated keratinocytes (normal human epidermal keratinocytes, NHEKs) was investigated. The experimental procedure was largely identical to the procedure described in Example 1. Differences consisted merely in the selection of the gene-specific primers for carrying out the quantitative Real-Time PCR.

human skin = test: Human in vivo study, maintenance of the skin tan (colorimetric skin colour); conditions: 39 people, forearm, twice daily for 56 days, formulations with 0.1, 0.4, 1.0% 13-HODE vs formulation without
Method: In order to test to what extent 13-HODE has an influence on maintaining the skin tan, the maintenance of the summer tan under the influence of 13-HODE in test formulations was investigated in a clinical study. The study was carried out over a period of 8 weeks from mid-September to mid-November in Germany. The subject of the investigation was the skin colour by means of colorimetric measurements using a Skin-Colorimeter® CL 400 from Courage+Khazaka electronic GmbH, Cologne, Germany. The measurements were made in each case on the inside of the left and right forearm on a defined area measuring 3 cm×3 cm at a distance of 11-14 cm from the wrist. The average value, which resulted from the individual values of six to nine repeat measurements, was registered. 39 people aged 21-55 years participated, of which 28 were female and 11 male. In each case, the starting value of the skin colour TO was determined prior to the treatment and the value T8 was determined after treatment for 56 days with test formulations. The application frequency was twice daily, morning and evening. The test persons were given one formulation for the left arm and one for the right arm (formulation A, B, C, D; as per the table below).

COX2 = test: UV-stimulated induction of COX2 gene expression in keratinocytes (qRT-PCR); format: cell-based, human; conditions: NHEKs, UV-B exposed, treated with 13-HODE as in Example 1; UV alone induction factor 2.5
Source text: as §1

TNF-α = test: UV-stimulated induction of TNF-α gene expression in keratinocytes (qRT-PCR); format: cell-based, human; conditions: NHEKs, UV-B exposed, treated with 13-HODE as in Example 1; UV alone induction factor 7.4
Source text: as §1

POMC [1] = test: Basal (not UV-induced) POMC gene expression in keratinocytes (qRT-PCR); format: cell-based, human; conditions: NHEKs, 10 μg/ml 13-HODE, no UV, 24 h + 24 h; standardized to 18S rRNA
Method: In the present example, the effect of 13-HODE on the POMC gene expression was investigated in keratinocytes which, in contrast to Example 1, have not been stimulated by prior UV exposure. For this purpose, firstly primary human epidermal keratinocytes were prepared from neonatal foreskin. The procedure is described in the following publications: Grether-Beck et al., J Invest Dermatol 2005, 125: 545-553; Grether-Beck et al., Exp Dermatol 2008, 17: 771-779. […]
The isolation of the whole-RNA and also the subsequent analysis of the gene expression by means of quantitative Real Time PCR (qRT-PCR) was carried out as described previously (Grether-Beck et al., J Invest Dermatol 2005, 125: 545-553; Grether-Beck et al., Exp Dermatol 2008, 17: 771-779). […] The RNA concentration was determined by means of photometric measurement at 260/280 nm (Biophotometer, Eppendorf, Germany). […] Besides the POMC expression, the expression of the 18s rRNA gene was also quantitatively determined as a reference. […]
The PCR reactions were carried out on an Opticon 1 (MJ Research, Waltham, Mass., USA). For all PCRs, double determinations of the biological triplicates were carried out, and for the evaluation averages of all measurements were calculated. […]

POMC [2] = test: UV-B-induced POMC gene expression in keratinocytes (qRT-PCR); format: cell-based, human; conditions: NHEKs, 3 μg/ml 13-HODE, 160 J/m^2 UV-B, harvest 6 h after exposure; standardized to 18S rRNA; UV alone factor 1.8; p<0.01
Method: In the present example, the effect of 13-HODE on the POMC gene expression in UV-B-stimulated keratinocytes (normal human epidermal keratinocytes, NHEKs) was investigated. For this purpose, firstly primary human epidermal keratinocytes were prepared from neonatal foreskin. The procedure is described in the following publications: Grether-Beck et al., J Invest Dermatol 2005, 125: 545-553; and Grether-Beck et al., Exp Dermatol 2008, 17: 771-779. […]
After cultivation for 24 hours, the cells were exposed to a dose of 160 J/m^2 of UV-B radiation. […] The emitted power was determined using an IL 1700 Research Radiometer and SEE 240 UV-B photodetector (International Light Inc., Newbury Port, Mass.) and was 2.4 W/m^2 at a distance of 22 cm. […]
Isolation of whole-RNA and subsequent analysis of the gene expression by means of quantitative Real Time PCR (qRT-PCR) was carried out as described previously (Grether-Beck et al., J Invest Dermatol 2005, 125: 545-553; Grether-Beck et al., Exp Dermatol 2008, 17: 771-779). […] The RNA concentration was determined by means of photometric measurement at 260/280 nm (Biophotometer, Eppendorf, Germany). […] Besides the POMC expression, the expression of the 18s rRNA gene was also determined quantitatively as a reference. […]

IL-6 = test: UV-stimulated induction of IL-6 gene expression in keratinocytes (qRT-PCR); format: cell-based, human; conditions: NHEKs, UV-B exposed, treated with 13-HODE as in Example 1; UV alone induction factor 10.1
Source text: as §1

CCCCCC(O)C=CC=CCCCCCCCC(=O)O (centres unmarked) [13-HODE, 13-hydroxy-9,11-octadecadienoic acid]
expression level of IL-8 in UV-exposed cells (IL-8): considerably reduced expression level
decrease in the blue-yellow parameter b* of the skin colour (human skin): reduced to differing degrees
increase in the parameter ITA° of the skin colour (human skin): reduced to differing degrees
expression level of COX2 in UV-exposed cells (COX2): considerably reduced expression level
expression level of TNF-α in UV-exposed cells (TNF-α): considerably reduced expression level
basal (not UV-stimulated) POMC expression compared to the control treated with the vehicle (DMSO) (POMC [1]): 1.2 fold
POMC expression increased by a factor compared to the untreated control (POMC [2]): 4.9
expression level of IL-6 in UV-exposed cells (IL-6): considerably reduced expression level
